Source: US3966793A (priority 1964, dated 1976)
“Also recorded” adds a separate entry of the source. Where a name gives a salt, the structure may show the parent alone.

Tests used:
[1] = test system: rat; experiment: Spontaneous motor activity in the rat; format: in vivo; conditions: Rattus norvegicus, po, read-out: Spontaneous motor activity, 50% effective dose
Source text: (§1) 6. Spontaneous motor activity in the rat and mouse and provoked motor activity
(§2) The effect of drugs on voluntary movements of animals can be studied statistically by methods, the details of which will not be discussed here. The mouse, which is an extremely lively animal and moves about a great deal, is particularly suitable for this type of experiment.

[2] = Reaction (pH) of aqueous solution; format: physicochemical
[3] = test system: cat; experiment: Morphine crisis (C); format: in vivo; conditions: Felis catus, SC, read-out: Morphine crisis, 50% effective dose
Source text: In the cat, morphine produces a specific state of excitation with hallucinations which can be attenuated or suppressed by certain psycholeptic drugs.

[4] = Solubility
[5] = test system: male rat; experiment: Combativeness (rat); format: in vivo; conditions: for ED50: rat, PO, read-out: Combativeness, 50% effective dose
Source text: It is possible to make a male rat aggressive towards another male rat enclosed in the same cage by passing an electric current of more or less high voltage through the floor of the cage.
This test, like the preceding one, can obviously give information of clinical value for the treatment of aggression diseases.

[6] = test system: cats; experiment: Aggressiveness (cat/mouse); format: in vivo; conditions: Felis catus, SC, read-out: Aggressiveness, 50% effective dose
Source text: 9. Aggressiveness (cat/mouse)
In general, 75 to 80% of cats are aggressive when confronted with white mice. Psycholeptics and tranquilizers may make the cat indifferent and sometimes even amiable to the mouse. Similarly, in the case of cats that are furious and aggressive in relation to humans, diminution or suppression of the instinctive fear and establishment of a climate of confidence are observed.

[7] = test system: mice; experiment: Anti-convulsant activity (electric shock) (mice); format: in vivo; conditions: Mus musculus, po, read-out: Electric shock, 50% effective dose
Source text: 4. Anti-convulsant activity (electric shock) (mice)
The test consists in determining the intensity of the electric current required to produce a fatal shock in a batch of test animals.
Certain preventively administered compounds effectively protect a certain percentage of animals subjected to an electric current of an intensity which is fatal to untreated animals.

[8] = test system: mice; experiment: Balance test: rotating rod (mice) (Equilibration); format: in vivo; conditions: Mus musculus, po, read-out: Equilibration, 50% effective dose
Source text: 2. Balance test: rotating rod (mice)
This test consists in observing whether the treated animals are capable of maintaining their balance on a horizontal rod kept in rotation.
Numerous neuroleptic compounds or tranquilizers disturb the equilibration reflex.

[9] = test system: mouse; experiment: Antistrychnine activity; format: in vivo; conditions: po, read-out: Anti-strychnine, 50% effective dose
Source text: 7. Antistrychnine activity

[10] = test system: central nervous system; experiment: Pharmacodynamic / central nervous system tests taken together; format: in vivo
Source text: A certain number of the compounds described in the present application have been studied with regard to their action on the central nervous system, as psycholeptics, myorrelaxants and tranquilizers. In addition, the acute toxicity has been determined for a number of these compounds.
It has thereby been possible to make quantitative comparisons of the activity of the different compounds for the different tests employed.

[11] = test system: mice; experiment: Exploration test (mice); format: in vivo; conditions: Mus musculus, read-out: Exploration, 50% effective dose
Description: 5. Exploration test (mice)
This extremely simple test consists in placing a mouse at the center of a floor pierced with holes and in noting how many holes the mouse explores in 5 minutes. This test is carried out in a room in which complete silence is observed and which contains no person except the experimenter who is seated and still. It appeals to the curiosity of the animals. The doses of the compounds employed are, however, very small and considerably less than those required to impair movement. This simple test makes it possible to observe whether the compounds assayed produce a more or less pronounced lack of interest in the environment and it gives information which is interesting from the clinical point of view with regard to the treatment of anxiety and restlessness.

[12] = test system: mouse; experiment: Spontaneous motor activity in the mouse; format: in vivo; conditions: Mus musculus, po, read-out: Spontaneous motor activity, 50% effective dose
Source text: as §1, §2

[13] = test system: mice; experiment: Traction test (mice), myorelaxant activity; format: in vivo; conditions: Mus musculus, po, read-out: Traction, 50% effective dose
Source text: This consists in observing when the treated animals are capable of retrieving a rod grasped by the front paws only. Inability to carry this out was interpreted as a sign of myorelaxant activity.

[14] = test system: mice; experiment: Anti-convulsant activity (anti-pentetrazole) (mice); format: in vivo; conditions: mouse, PO; pentetrazole 125 mg./kg. IP; read-out: Anti-pentetrazole, 50% effective dose
Description: 3. Anti-convulsant activity (anti-pentetrazole) (mice)
Pentetrazole, injected intraperitoneally in a dose of 125 mg./kg. produces fatal convulsions in 100% of the animals.
Certain compounds exert a protective action preventing convulsions and permitting survival.

[15] = Acute toxicity (M) LD 50; conditions: in vivo, mouse
[16] = test system: rat; experiment: Benzedrine provoked motor activity (R); format: in vivo; conditions: PO, read-out: Benzedrine provoked motor activity, 50% effective dose
Source text: as §1, §2
(§3) Moreover, this spontaneous mobility can be exacerbated by preventive administration to the animals of certain substances such as benzedrine, mescaline and ritaline.
(§4) The experimental results obtained by these methods give valuable information for clinical purposes with regard to the treatment of ambulatory psychomotor crises.

[17] = test system: mouse; experiment: Potentiation of narcosis (M); format: in vivo; conditions: PO, read-out: Narcotic potentiation, 50% effective dose
Source text: 12. Potentiation of narcosis
Most psycholeptics are hypnotics in large doses, but many of them can, in small doses, without themselves producing any hypnosis, either prolong the time of sleep obtained with a true hypnotic (for example a barbiturate) or appreciably lower the dose of barbiturate required to obtain sleep.

[18] = test system: mouse; experiment: Benzedrine provoked motor activity (M); format: in vivo; conditions: PO, read-out: Benzedrine provoked motor activity, 50% effective dose
Source text: as §1, §2, §3, §4

[19] = test system: mouse; experiment: Morphine excitation (M); format: in vivo; conditions: PO, read-out: Morphine excitation, 50% effective dose
Source text: In the mouse, the action of morphine is different but also manifested by marked central excitation.

SMILES	Reaction / pH of aqueous solution [2]	Solubility in water [4]	ED50 [7] [mg/kg]	ED50 [8] [mg/kg]	ED50 ([11]; po) [mg/kg]	ED50 [12] [mg/kg]	ED50 [13] [mg/kg]	ED50 [14] [mg/kg]	further results
O=C(O)C1N=C(c2ccccc2)c2cc([N+](=O)[O-])ccc2NC1=O (stereo not drawn) [4336 CB, 3-[7-nitro-5-phenyl-2-oxo-2,3-dihydro-1H-benzo[f]-1,4-diazepine]-carboxylicacid, potassium salt]	practically neutral solution	dissolves in water	3	1.5	6	5	0.28	0.31	ED50 [1]: 50 mg/kg; ED50 [3]: 25 mg/kg; ED50 [5]: 10 mg/kg; Effect in diminishing aggressiveness ([5]; test for combativeness): marked effect in diminishing aggressiveness; ED50 [6]: 25 mg/kg; ED50 [9]: 25 mg/kg; Activity in different tests, especially as myorelaxants and anticonvulsants ([10]; different tests of Table VI): extremely active in different tests; Effect on the faculties of displacement ([10]; in vivo): less effect on the faculties of displacement; LD50 ([15]; PO): 800 mg/kg
Cc1ccc2c(c1)C(c1ccccc1)=NC(C(=O)O)C(=O)N2.[K+].[K+].[OH-].[OH-] (stereo not drawn) [4339 CB, 7-Methyl-2,3-dihydro-2-oxo-5-phenyl-1H-benzo[f]-1,4-diazepine-3-carboxylic acid, monopotassium salt, monopotassium hydroxide]	–	completely soluble in water	> 10	> 10	–	10	> 10	> 10	–
O=C(O)C1N=C(c2ccccc2)c2ccccc2NC1=O (stereo not drawn) [4338 CB, 3-[5-Phenyl-2-oxo-2,3-dihydro-1H-benzo[f]-1,4-diazepine]-carboxylic acid, potassium salt]	substantially neutral reaction	dissolves in water	> 10	> 10	–	10	5	> 10	ED50 ([11]; route not given): > 10 mg/kg
NC(=O)C(N=C(c1ccccc1)c1cc(Cl)ccc1N)C(=O)O (stereo not drawn) [4349 CB, Potassium salt of 4-phenyl-4-(2-amino-5-chlorophenyl)-2-carbamoyl-3-aza-3-butenoic acid]	–	completely soluble in water	> 10	> 10	10	10	10	> 10	–
CCOC(=O)C1N=C(c2ccccc2)c2cc(Cl)ccc2NC1=O (stereo not drawn) [4279 CB, 7-Chloro-3-carbethoxy-5-phenyl-2-oxo-2,3-dihydro-1H-benzo[f]-1,4-diazepine]	–	–	25	50	25	100	8	10	ED50 [1]: 100 mg/kg; ED50 [16]: > 100 mg/kg
O=C(O)C1N=C(c2ccccc2)c2cc(Cl)ccc2NC1=O (stereo not drawn) [4372 CB, 7-Chloro-2,3-dihydro-2-oxo-5-phenyl-1H-benzo[f]-1,4-diazepine-3-carboxylic acid, calcium salt]	–	sparingly soluble in water	–	–	–	–	–	–	–
CNC1=Nc2ccc(Cl)cc2C(c2ccccc2)=[N+]([O-])C1 [Chlordiazepoxide, reference compound]	–	–	17	13	20	–	3	5	ED50 [3]: 100 mg/kg; ED50 [5]: 100 mg/kg; LD50 ([15]; IP): 80 mg/kg; LD50 ([15]; PO): 200 mg/kg; ED50 [16]: > 100 mg/kg
Cc1ccc2c(c1)C(c1ccccc1)=NC(C(=O)O)C(=O)N2 (stereo not drawn) [4373 CB, 3-[7-methyl-5-phenyl-2-oxo-2,3-dihydro-1H-benzo[f]-1,4-diazepine]-carboxylic acid, potassium salt]	–	completely soluble in water	–	–	–	–	–	–	–
CCN(CC)CCNC(=O)C1N=C(c2ccccc2)c2cc(Cl)ccc2NC1=O (stereo not drawn) [4369 CB, 7-Chloro-3-(2-diethylamino-ethylaminocarbonyl)-5-phenyl-2-oxo-2,3-dihydro-1H-benzo[f]-1,4-diazepine]	–	–	> 20	> 50	> 20	> 10	> 25	> 50	–
Nc1ccc2c(c1)C(c1ccccc1)=NC(C(=O)O)C(=O)N2.[K+].[K+].[OH-].[OH-] (stereo not drawn) [4371 CB, 7-Amino-2,3-dihydro-2-oxo-5-phenyl-1H-benzo[f]-1,4-diazepine-3-carboxylic acid, monopotassium salt, monopotassium hydroxide]	strongly alkaline reaction	completely soluble in water	–	–	–	–	–	–	–
CN1C(=O)C(C(=O)O)N=C(c2ccccc2)c2cc(Cl)ccc21.[K+].[K+].[OH-].[OH-] (stereo not drawn) [4350 CB, 7-Chloro-1-methyl-2,3-dihydro-2-oxo-5-phenyl-1H-benzo[f]-1,4-diazepine-3-carboxylic acid, monopotassium salt, monopotassium hydroxide]	strongly alkaline in reaction	very soluble in water; also recorded: completely soluble in water	20	> 10	10	> 20	5	7.5	–
O=C(O)C1N=C(c2ccccc2)c2ccccc2NC1=O.[K+].[K+].[OH-].[OH-] (stereo not drawn) [4337 CB, 2,3-Dihydro-2-oxo-5-phenyl-1H-benzo[f]-1,4-diazepine-3-carboxylic acid, monopotassium salt, monopotassium hydroxide]	strongly alkaline in reaction	completely soluble in water	> 10	> 10	> 10	–	5	> 10	–
CN1C(=O)CN=C(c2ccccc2)c2cc(Cl)ccc21 [Diazepame, 7-Chloro-1-methyl-5-phenyl-2-oxo-2,3-dihydro-1H-benzo[f]-1,4-diazepine, reference compound]	–	–	5	4.4	6	5	1.6	1.7	ED50 [1]: 25 mg/kg; ED50 [17]: 2.5 mg/kg; ED50 [3]: 25 mg/kg; ED50 [18]: > 20 mg/kg; ED50 [5]: 25 mg/kg; ED50 [6]: 25 mg/kg; ED50 [9]: > 50 mg/kg; ED50 [19]: 25 mg/kg; ED50 [16]: 100 mg/kg
